US20220395007A1, “TASTE MODULATING COMPOUNDS AND METHODS OF IMPROVING THE QUALITY OF FOODS AND BEVERAGES” (Ohio State Innovation Foundation, priority 2019, published 2022)

What was measured:
[1] = test system: perceived bitterness intensity of a coffee rated as having a high bitter intensity; test: Sensory panel evaluation of perceived bitterness intensity of coffee brew; assay type: in vivo, human; conditions: compound added individually to high-bitter coffee (4-CQA about 177 mg/L, 5-CQA about 181 mg/L, 2-GA about 45 mg/L); eight trained panelists, nose clips, room temperature, duplicate; p<0.05
Procedure: 4-CQA (4-caffeoylquinic acid) (about 177 mg/L), 5-CQA (5-caffeoylquinic acid) (about 181 mg/L), and 2-GA (2-O-β-D-glucopyranosyl-atractyligenin) (about 45 mg/L) were added individually or as a group to a coffee rated as having a high bitter intensity. Five mL of each sample at room temperature was presented to experienced sensory panelists in 1 oz black cups labeled with 3-digit codes in random order. Eight trained panelists, recruited by Flavor Research and Education Center (FREC) at The Ohio State University, used nose clips during the evaluation in order to prevent interactions with olfactory responses. Between samples, panelists waited a minimum of 90 seconds and were asked to cleanse their palate using crackers and water. All evaluations were conducted in duplicate using Compusense Cloud software (Compusense Inc., Guelph, ON, Canada). […] FIGS. 1 and 2.

[2] = test system: taste attributes in isolation; test: Taste attributes of the compounds in isolation, by consensus of experienced sensory panelists; assay type: in vivo, human; conditions: same concentrations as in coffee, 5 experienced panelists by consensus
Procedure: The taste attributes 4-CQA, 5-CQA, and 2-GA in isolation were further evaluated by 5 experienced sensory panelists by consensus. Each compound was dissolved in 5 mL nanopure water and 5 mL buffer (0.05 M sodium phosphate butter adjusted to pH 5.77 with 0.1 M citric acid) at the same concentrations described above. […] This led to the confirmation that 4-CQA, 5-CQA, and 2-O-β-D-glucopyranosyl-atractyligenin were bitter modulators that suppressed perception.

[3] = dissolved in 5 mL buffer (0.05 M sodium phosphate adjusted to pH 5.77 with 0.1 M citric acid)
[4] = dissolved in 5 mL nanopure water

Row | Compound | perceived bitterness intensity of the coffee brew [1] | taste attribute in isolation [2, 3] | taste attribute in isolation [2, 4]
1 | C=C1[C@@H]2CCC3[C@@](CC[C@@H]4[C@H](C(=O)O)C[C@@H](O[C@@H]5O[C@H](CO)[C@@H](O)[C@H](O)[C@H]5O)C[C@@]34C)(C2)[C@H]1O (stereo partly drawn) [2-GA, 2-O-β-D-glucopyranosyl-atractyligenin] | significantly reduce | no obvious taste character | no obvious taste character
2 | O=C(/C=C/c1ccc(O)c(O)c1)O[C@H]1C(O)C[C@](O)(C(=O)O)C[C@H]1O (stereo partly drawn) [4-CQA, 4-O-caffeoylquinic acid] | significantly reduce | very weak sour taste | very weak sour taste
3 | O=C(/C=C/c1ccc(O)c(O)c1)O[C@@H]1C[C@@](O)(C(=O)O)C[C@@H](O)[C@@H]1O [5-CQA, 5-O-caffeoylquinic acid] | significantly reduce | very weak sour taste | very weak sour taste
